Reference: patent US9181235B2, “Substituted pyridines for modulating the WNT signaling pathway” (NOVARTIS AG, priority 2010, dated 2015)

Tested on: Wnt signaling
Test: Wnt-Luc reporter assay for pathway inhibition of Wnt signaling
Type: cell-based, mouse (TM3 Wnt-Luc) or human (293 Wnt-Luc); not stated which
Settings: Wnt-Luc reporter cells co-cultured with L-cell Wnt3a cells, 24 hours
Experimental: This example provides a method that is useful for evaluating test compounds for inhibition of Wnt signaling.
Mouse leydig cell TM3 cells (obtained from American Type Culture Collection, ATCC, Manassas, Va.) are cultured in 1:1 mixture of Ham's F12 medium and Dulbecco's modified Eagle's medium (Gibco/Invitrogen, Carlsbad, Calif.) supplemented with 2.5% FBS (Gibco/Invitrogen, Carlsbad, Calif.) and 5% horse serum (Gibco/Invitrogen, Carlsbad, Calif.), 50 unit/mL penicillin and 50 μg/mL of streptomycin (Gibco/Invitrogen, Carlsbad, Calif.) at 37° C. with 5% CO2 in air atmosphere. TM3 cells in a 10 cm dish are co-transfected with 8 μg of STF-reporter plasmid containing a luciferase gene driven by Wnt-responsive elements and 2 μg of pcDNA3.1-Neo (Gibco/Invitrogen, Carlsbad, Calif.) with 30 μL of FuGENE6 (Roche Diagnostics, Indianapolis, Ind.) following the manufacturer's protocol. Stable cell lines (TM3 Wnt-Luc) were selected with 400 μg/mL of G418 (Gibco/Invitrogen, Carlsbad, Calif.). The TM3 Wnt-Luc cells and L-cell Wnt3a cells (obtained from American Type Culture Collection, ATCC, Manassas, Va.; cultured in Dulbecco's modified Eagle's medium (Gibco/Invitrogen, Carlsbad, Calif.) supplemented with 10% FBS (Gibco/Invitrogen, Carlsbad, Calif.) and 50 unit/mL penicillin and 50 μg/mL of streptomycin (Gibco/Invitrogen, Carlsbad, Calif.) at 37° C. with 5% CO2 in air atmosphere) are trypsinized and co-cultured into a 384-well plate with DMEM medium supplemented with 2% FBS, and treated with different concentrations of a compound of the invention. After 24 hours, the firefly luciferase activities are assayed with the Bright-Glo™ Luciferase Assay System (Promega, Madison, Wis.). The IC50 is measured when the effect of the compound reduces the luminescence signal by 50%.
This example provides another method that is useful for evaluating test compounds for inhibition of Wnt signaling.
Human embryonic kidney 293 cells (obtained from American Type Culture Collection, ATCC, Manassas, Va.) are cultured in DMEM medium (Gibco/Invitrogen, Carlsbad, Calif.) supplemented with 10% FBS (Gibco/Invitrogen, Carlsbad, Calif.), 50 unit/mL penicillin and 50 μg/mL of streptomycin (Gibco/Invitrogen, Carlsbad, Calif.) at 37° C. with 5% CO2 in air atmosphere. 293 cells in a 10 cm dish are co-transfected with 8 μg of STF-reporter plasmid containing a luciferase gene driven by Wnt-responsive elements and 2 μg of pcDNA3.1-Neo (Gibco/Invitrogen, Carlsbad, Calif.) with 30 μL of FuGENE6 (Roche Diagnostics, Indianapolis, Ind.) following the manufacturer's protocol. Stable cell lines (293 Wnt-Luc) were selected with 400 μg/mL of G418 (Gibco/Invitrogen, Carlsbad, Calif.). The 293 Wnt-Luc cells and L-cell Wnt3a cells (obtained from American Type Culture Collection, ATCC, Manassas, Va.) are trypsinized and co-cultured into a 384-well plate with DMEM medium supplemented with 2% FBS, and treated with different concentrations of a compound of the invention. After 24 hours, the firefly luciferase activities are assayed with the Bright-Glo™ Luciferase Assay System (Promega, Madison, Wis.). The IC50 is measured when the effect of the compound reduces the luminescence signal by 50%.

[1] = luciferase signal reduced by 50%

Compound | IC50 [1] [nM] | IC50 (Table 2) [nM]
Cc1cc(-c2ccc(CNC(=O)c3ccc(-c4ccnnc4)nc3)cc2)ccn1 [compound 19, N-{[4-(2-methylpyridin-4-yl)phenyl]methyl}-6-(pyridazin-4-yl)pyridine-3-carboxamide] | 27 | –
Cc1cc(C(=O)NCc2cnc(-c3ccnc(C(F)(F)F)c3)c(C)c2)ncc1-c1cnccn1 [compound 79, 4-methyl-N-({5-methyl-6-[2-(trifluoromethyl)pyridin-4-yl]pyridin-3-yl}methyl)-5-(pyrazin-2-yl)pyridine-2-carboxamide] | 982 | –
Cc1cc(-n2ccc(CNC(=O)c3ccc(-c4cccc(F)c4)cn3)cc2=O)ccn1 [compound 91, 5-(3-fluorophenyl)-N-{[1-(2-methylpyridin-4-yl)-2-oxo-1,2-dihydropyridin-4-yl]methyl}pyridine-2-carboxamide] | 3.8 | –
Cc1cc(-c2cnc(CNC(=O)c3ccc(-c4cnccn4)cn3)c(C)c2)ccn1 [compound 81, N-((2′,5-dimethyl-3,4′-bipyridin-6-yl)methyl)-5-(pyrazin-2-yl)picolinamide] | 20 | –
CC(=O)N1CCN(c2ccc(C(=O)NCc3ccc(-c4ccnc(C)c4)c(F)c3)cn2)CC1 [compound 20, 6-(4-Acetylpiperazin-1-yl)-N-(3-fluoro-4-(2-methylpyridin-4-yl)benzyl)nicotinamide] | 6.4 | –
Cc1cc(-c2ncc(CNC(=O)c3ccc(-c4cc(F)ccc4C)cn3)cc2C)ccn1 [compound 80, 5-(5-fluoro-2-methylphenyl)-N-{[5-methyl-6-(2-methylpyridin-4-yl)pyridin-3-yl]methyl}pyridine-2-carboxamide] | 4.2 | –
O=C(NCc1ccc(-c2cccnc2)cc1)c1ccc(-c2ccccc2)cc1 [compound 10, N-(4-(pyridin-3-yl)benzyl)biphenyl-4-carboxamide] | 12.5 | –
CC(=O)N1CCN(c2ccc(C(=O)NCc3cnc(-c4ccnc(C)c4)c(F)c3)nc2)CC1 [compound 62, 5-(4-acetylpiperazin-1-yl)-N-{[5-fluoro-6-(2-methylpyridin-4-yl)pyridin-3-yl]methyl}pyridine-2-carboxamide] | 11.8 | –
Cc1cc(CNC(=O)c2ccc(-c3cccnn3)nc2)cnc1-c1ccnc(F)c1 [compound 52, N-{[6-(2-fluoropyridin-4-yl)-5-methylpyridin-3-yl]methyl}-6-(pyridazin-3-yl)pyridine-3-carboxamide] | 1.6 | –
O=C(NCC1CCN(C(=O)c2ccnc(F)c2)CC1)c1ccc(-c2cccc(F)c2)nc1 [compound 93, N-((1-(2-Fluoroisonicotinoyl)piperidin-4-yl)methyl)-6-(3-fluorophenyl)nicotinamide] | 92 | –
Cc1cc(-c2cnc(CNC(=O)c3ccc(-c4cnccn4)cn3)cc2C)ccn1 [compound 86, N-{[4-methyl-5-(2-methylpyridin-4-yl)pyridin-2-yl]methyl}-5-(pyrazin-2-yl)pyridine-2-carboxamide] | 17 | –
Cc1cc(C(=O)NCc2cnc(-c3ccnc(C(F)(F)F)c3)c(C)c2)ncc1-c1cccc(F)c1 [compound 83, 5-(3-fluorophenyl)-4-methyl-N-({5-methyl-6-[2-(trifluoromethyl)pyridin-4-yl]pyridin-3-yl}methyl)pyridine-2-carboxamide] | 812 | –
Cc1cc(C(=O)NCc2cnc(-c3ccnc(C(F)(F)F)c3)c(C)c2)ncc1-c1ncccc1C [compound 96] | – | > 2000
O=C(NCc1ccc(-c2ccnc(F)c2)nc1)c1ccc(-n2ccccc2=O)cn1 [compound 44, N-((2′-fluoro-[2,4′-bipyridin]-5-yl)methyl)-2-oxo-2H-[1,3′-bipyridine]-6′-carboxamide] | 465 | –

Other lines, results leading:

IC50 [1] [nM] | IC50 (Table 2) [nM] | Compound
0.24 | – | COC(=O)N1CCN(c2ccc(C(=O)NCc3cnc(-c4ccnc(C(F)(F)F)c4)c(F)c3)nc2)CC1 [compound 49, Methyl 4-(6-((3-fluoro-2′-(trifluoromethyl)-2,4′-bipyridin-5-yl)methylcarbamoyl)pyridin-3-yl)piperazine-1-carboxylate]
0.1 | – | Cc1cc(-c2ccc(CNC(=O)c3ccc(-c4cccc(F)c4)cc3)cn2)ccn1 [compound 23, 4-(3-fluorophenyl)-N-{[6-(2-methylpyridin-4-yl)pyridin-3-yl]methyl}benzamide]
0.3 | – | Cc1cc(-c2ncc(CNC(=O)c3ccc(-c4cccc(F)c4)cn3)cc2C)ccn1 [compound 36, 5-(3-fluorophenyl)-N-{[5-methyl-6-(2-methylpyridin-4-yl)pyridin-3-yl]methyl}pyridine-2-carboxamide]
0.79 | – | O=C(NCc1ccc(-c2ccnc(C(F)(F)F)c2)nc1)c1ccc(-c2cnccn2)nc1 [compound 42, 6-(Pyrazin-2-yl)-N-((2′-(trifluoromethyl)-2,4′-bipyridin-5-yl)methyl)nicotinamide]
0.35 | – | Cc1cc(CNC(=O)c2ccc(-c3cccc(F)c3)cn2)cnc1-c1ccnc(C(F)(F)F)c1 [compound 57, 5-(3-fluorophenyl)-N-({5-methyl-6-[2-(trifluoromethyl)pyridin-4-yl]pyridin-3-yl}methyl)pyridine-2-carboxamide]
0.06 | – | Cc1cc(-c2ccc(CNC(=O)c3ccc(-c4cccc(F)c4)cc3)cc2)ccn1 [compound 12, 4-(3-fluorophenyl)-N-{[4-(2-methylpyridin-4-yl)phenyl]methyl}benzamide]
0.2 | – | O=C(NCc1ccc(-c2ccnc(C(F)(F)F)c2)nc1)c1ccc(-c2cccc(F)c2)cn1 [compound 33, 5-(3-Fluorophenyl)-N-((2′-(trifluoromethyl)-2,4′-bipyridin-5-yl)methyl)picolinamide]
0.2 | – | Cc1cc(-c2ccc(CNC(=O)c3ccc(-c4cccc(F)c4)nc3)cn2)ccn1 [compound 27, 6-(3-fluorophenyl)-N-{[6-(2-methylpyridin-4-yl)pyridin-3-yl]methyl}pyridine-3-carboxamide]
0.2 | – | Cc1cc(-c2ccc(CNC(=O)c3ccc(-c4cnccn4)cc3)cn2)ccn1 [compound 18, N-((2′-methyl-[2,4′-bipyridin]-5-yl)methyl)-4-(pyrazin-2-yl)benzamide]
0.41 | – | Cc1cc(CNC(=O)c2ccc(-c3cnccn3)cc2)cnc1-c1ccnc(C(F)(F)F)c1 [compound 58, N-((3-Methyl-2′-(trifluoromethyl)-2,4′-bipyridin-5-yl)methyl)-4-(pyrazin-2-yl)benzamide]
0.56 | – | CN(C)c1ccc(-c2ccc(C(=O)NCc3ccc(-c4ccnc(F)c4)nc3)nc2)cn1 [compound 38, 6′-(Dimethylamino)-N-((2′-fluoro-2,4′-bipyridin-5-yl)methyl)-3,3′-bipyridine-6-carboxamide]
1.4 | – | CN(C)c1ccc(-c2ccc(C(=O)NCc3ccc(-c4ccnc(F)c4)nc3)cn2)cn1 [compound 25, 6-[6-(dimethylamino)pyridin-3-yl]-N-{[6-(2-fluoropyridin-4-yl)pyridin-3-yl]methyl}pyridine-3-carboxamide]
1.2 | – | Cc1cc(-c2ncc(CNC(=O)c3ccc(-c4cc(F)ccc4C)cn3)cc2F)ccn1 [compound 76, 5-(5-fluoro-2-methylphenyl)-N-{[5-fluoro-6-(2-methylpyridin-4-yl)pyridin-3-yl]methyl}pyridine-2-carboxamide]
0.44 | – | COC(=O)N1CCN(c2ccc(C(=O)NCc3cnc(-c4ccnc(C(F)(F)F)c4)c(F)c3)cn2)CC1 [compound 14, methyl 4-{5-[({5-fluoro-6-[2-(trifluoromethyl)pyridin-4-yl]pyridin-3-yl}methyl)carbamoyl]pyridin-2-yl}piperazine-1-carboxylate]
0.06 | – | Cc1cc(-c2ccc(CNC(=O)c3ccc(-c4ccccc4)cc3)cc2)ccn1 [compound 9, N-{[4-(2-methylpyridin-4-yl)phenyl]methyl}-4-phenylbenzamide]
